The results in this text go back to patent publication US20240315992A1, “AMINOXY ACID-BASED ANTIBACTERIAL COMPOUNDS AND METHODS THEREOF” (The University of Hong Kong, priority 2023, published 2024).

≈ marks a conversion by molar mass, not a printed value.

One data set has as its system MSSA ATCC 35556. Briefly: MIC by CLSI broth micro-dilution, MSSA ATCC 35556. Conditions: Staphylococcus aureus, read-out: Minimum inhibitory concentration. It is filed as cell-based. The protocol: (§1) Aminoxy acids were synthesized by the standard peptide coupling procedures. Minimum inhibitory concentration was determined using CLSI broth micro-dilution method in 96-wells microtitre plates. Minimum inhibitory concentration is defined as the lowest concentration of the compound that inhibits visible growth of the bacteria. All experiments were performed three times. 24 compounds including aminoxy acid monomers and dipeptides have been identified to show toxicity against multidrug resistant Staphylococcus aureus Mu3 and summarized in Table 1. The minimum inhibitory concentration of compound 8 and compound 35 on other gram-positive bacteria was also evaluated and summarized in Table 2. […] As shown in FIGS. 3A-3B there are no observable hemolysis for compound 8 and compound 35 towards human red blood cell.
(§2) Bacteria were streaked from the glycerol stock into BHI agar and were incubated overnight. Single colony was picked for the overnight culture in cation-adjusted Mueller Hinton broth (CAMH), LB or BHI. The overnight culture was sub-cultured and regrew to exponential phase for the experiment.
(§3) MIC was determined by CLSI broth micro-dilution method in 96-wells microtitre plates. […] Optical density was recorded by DTX 880 multimode detector (Beckman Coulter, California, US). […]
For orientation: Dilution methods test growth across graded concentrations, often in twofold steps.

Another data set has as its system MSSA ATCC 6538. Briefly: MIC by CLSI broth micro-dilution, MSSA ATCC 6538. Particulars: Staphylococcus aureus, read-out: Minimum inhibitory concentration. Format: cell-based. Here is the method:
as §1, §2, §3

In the next data set the test system is MRSA-USA300. Briefly: MIC by CLSI broth micro-dilution, MRSA-USA300. It is filed as cell-based. Conditions: Staphylococcus aureus, read-out: Minimum inhibitory concentration. The protocol: as §1, §2, §3
In data set [1] the test system is L. monocytogenes clinical strain. Briefly: MIC by CLSI broth micro-dilution, L. monocytogenes. It is filed as cell-based. Conditions: Listeria monocytogenes, BHI medium, read-out: Minimum inhibitory concentration. Here is the method: as §1, §2, §3
Data set [2] relates to E. faecalis clinical strain. Briefly: MIC by CLSI broth micro-dilution, E. faecalis. Particulars: Enterococcus faecalis, BHI medium, read-out: Minimum inhibitory concentration. Format: cell-based. Here is the method: as §1, §2, §3
The test system of the next data set is M. smegmatis mc^2155. Briefly: MIC by CLSI broth micro-dilution, M. smegmatis. Format: cell-based, Mycobacterium smegmatis. Particulars: Mycolicibacterium smegmatis; M. smegmatis mc^2155, BHI medium; read-out: Minimum inhibitory concentration. Here is the method: as §1, §2, §3
The next data set deals with MDCK. Briefly: Mammalian cell cytotoxicity assay (MTT), MDCK. Format: cell-based. Conditions: at 16 folded MIC (50 μM compound 8, 12.5 μM compound 35). The protocol:
FIGS. 2A-2B are the bar graphs showing the cytotoxicity of compound 8 (FIG. 2A) and compound 35 (FIG. 2B) towards mammalian cell NIH3T3, MDCK and MIHA. % survival is mean±S.D normalized to DMSO as the negative control of a representative experiment. Biological triplicates were conducted.
In the treated culture dish, cells were washed by PBS and then trypsinized. DMEM was added to quench the reaction. Cells were centrifuged and resuspended into fresh DMEM. Cells were then seeded in 96-well microtitre plate (100 μL, 5000 cells per well) for 24 hours before addition of compounds. The compounds were two-fold serial diluted by DMSO in a DMSO-compatible 96-well plate. 1 μL of compound in DMSO is transferred into the 96-well microtitre preparation plate containing 100 μL DMEM medium. The medium in culture plate was removed and compounds in preparation plate were transferred to culture plate. Equal volume of DMSO was used as negative control.
After 24 hours of incubation of cells, cell viability was measured by MTT assay. In MTT assay, 20 μL 5 mg/mL MTT solution in PBS was added to cell medium and cultured for 3 hours. The medium was then removed and 50 μL DMSO was added and cultured for 10 minutes. Absorbance at 595 nm was measured spectrophotometrically (Beckman Coulter DTX 880 Multimode Detector) and normalized to DMSO group. Biological replicates were performed.

In data set [3] the test system is Staphylococcus aureus strain USA300-LAC. Briefly: Lethal bacteremia infection model, survival. It is filed as in vivo, Balb/c mice. Particulars: 10 mg/kg/day intraperitoneal, twice per day, 7 days. The protocol: FIG. 8 is a line graph showing compound 8 and compound 35 rescue mice from Staphylococcus aureus bacteremia infection model. Statistical analysis was performed with a log rank test (Mantel Cox test). (*p<0.05).
Staphylococcus aureus strain USA300-LAC were cultured to the early exponential phase of growth, washed twice with sterile phosphate-buffered saline solution (PBS), and resuspended in PBS at 3×10^7 CFU/200 μL for lethal bacteremia model. The female Balb/c mice, 6-8 weeks, were infected intravenously (i.v.) through the tail vein with Staphylococcus aureus and randomized into three groups (N=11 for vehicle; N=12 for compound 8 and compound 35 respectively). Six hour after infection, mice received intraperitoneal injections of compound 8 or compound 35 (10 mg/kg/day) or an injection of buffer (PBS with 2.5% DMSO and 2% Tween-80) as the control. The compound and injection buffer treatments were performed twice per day at 12-h intervals. The challenged mice were monitored for 7 days, at which point all the remaining mice were sacrificed. Statistical analysis was performed with a log rank test (Mantel Cox test). (*p<0.05).

`CC(C)C[C@H](ONC(=O)[C@@H](COCc1ccccc1)ONC(=O)c1cc(C(F)(F)F)cc(C(F)(F)F)c1)C(=O)Nc1ccccc1` [Compound 8]: the MIC was 3.13 µM (≈ 2.05 µg/mL) in the data set on MSSA ATCC 35556; 3.13 µM (≈ 2.05 µg/mL) with MSSA ATCC 6538; 3.13 µM (≈ 2.05 µg/mL) with MRSA-USA300; 6.25 µM (≈ 4.1 µg/mL) in data set [1]; 3.13 µM (≈ 2.05 µg/mL) in data set [2]; 12.5 µM (≈ 8.19 µg/mL) in the data set on M. smegmatis mc^2155. Further, in the data set on MDCK, the “toxicity against mammalian cell MDCK” value was “minimal toxicity”. Also, the “rescue of mice from bacteremia infection (survival)” value in data set [3] is given as “can rescue mice”.

As to `CC(C)C[C@H](ONC(=O)[C@@H](COCc1ccccc1)ONC(=O)c1cc(C(F)(F)F)cc(C(F)(F)F)c1)C(=O)Nc1ccc2c(c1)OC(F)(F)O2` [Compound 35], the MIC with MSSA ATCC 35556 stood at 0.78 µM (≈ 0.574 µg/mL); in the data set on MSSA ATCC 6538, 1.56 µM (≈ 1.15 µg/mL); with MRSA-USA300, 3.13 µM (≈ 2.3 µg/mL); in data set [1], 0.78 µM (≈ 0.574 µg/mL); in data set [2] it was 6.25 µM (≈ 4.6 µg/mL); with M. smegmatis mc^2155, 1.56 µM (≈ 1.15 µg/mL). Further, the “toxicity against mammalian cell MDCK” value in the data set on MDCK is listed as “minimal toxicity”. In addition, in data set [3], the “rescue of mice from bacteremia infection (survival)” value was “can rescue mice”.
